Patent US20040185499A1, “Method of epitope scanning using fluorescence polarization” (priority 2003, published 2004)
Where no end group is shown, it is not given here. The star is where a group is joined. 6FAM = O=C1OC2(c3ccc(O)cc3Oc3cc(O)ccc32)c2cc(C(=O)*)ccc21

Test system: antibodies to MPB70 in M. bovis positive bovine serum
Assay type: binding
Settings: pH 7.5

NNPELTTLTAALSGQ (6FAM-NNPELTTLTAALSGQ; listed as Mycobacterium bovis) [Peptide 22]
increase in fluorescence polarization with M. bovis positive bovine serum sample: substantial increase in fluorescence polarization

VAVAASNNPELTTLT (6FAM-VAVAASNNPELTTLT; listed as Mycobacterium bovis) [Peptide 16]
increase in fluorescence polarization with M. bovis positive bovine serum sample: substantial increase in fluorescence polarization

AASNNPELTTLTAAL (6FAM-AASNNPELTTLTAAL; listed as Mycobacterium bovis) [Peptide 19]
increase in fluorescence polarization with M. bovis positive bovine serum sample: substantial increase in fluorescence polarization

SNNPELTTLTAALSG (6FAM-SNNPELTTLTAALSG; listed as Mycobacterium bovis) [Peptide 21]
increase in fluorescence polarization with M. bovis positive bovine serum sample: substantial increase in fluorescence polarization

ASNNPELTTLTAALS (6FAM-ASNNPELTTLTAALS; listed as Mycobacterium bovis) [Peptide 20]
increase in fluorescence polarization with M. bovis positive bovine serum sample: substantial increase in fluorescence polarization

VAASNNPELTTLTAA (6FAM-VAASNNPELTTLTAA; listed as Mycobacterium bovis) [Peptide 18]
increase in fluorescence polarization with M. bovis positive bovine serum sample: substantial increase in fluorescence polarization

AVAASNNPELTTLTA (6FAM-AVAASNNPELTTLTA; listed as Mycobacterium bovis) [Peptide 17]
increase in fluorescence polarization with M. bovis positive bovine serum sample: substantial increase in fluorescence polarization
